Measured values: PubChem BioAssay AID248 (DTP/NCI, 2004)
Several values for one entry are separate records, joined by “and”; a condition that tells them apart may be missing. Identical values can stand only once. Toxic doses and inconclusive results are not listed. Rule as the data show it: active = T/C of 150% or more; inactive = T/C below 125%.

System: L1210 leukemia ip in BDF1 mice, survival T/C
Assay: NCI In Vivo Anticancer Drug Screen. Data for tumor model L1210 Leukemia (intraperitoneal) in B6D2F1 (BDF1) mice
Conditions: endpoint: mean survival time, higher = longer survival
Summary of the method: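 Tumor was transplanted into mice, which were then dosed with test compound or vehicle alone. Survival was recorded for each group, and the treated figure was expressed relative to the control figure.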

[1] = dose: 100.0 mg/kg/injection, schedule: Q04DX002 (ip), vehicle: saline with Tween-80
[2] = dose: 200.0 mg/kg/injection, schedule: Q04DX002 (ip), vehicle: saline with Tween-80
[3] = dose: 400.0 mg/kg/injection, schedule: Q04DX002 (ip), vehicle: saline with Tween-80
[4] = dose: 50.0 mg/kg/injection, schedule: Q01DX009 (ip), vehicle: saline with Tween-80
[5] = dose: 100.0 mg/kg/injection, schedule: Q01DX009 (ip), vehicle: saline with Tween-80
[6] = dose: 100.0 mg/kg/injection, schedule: Q04DX003 (ip), vehicle: Klucel (hydroxypropylcellulose) (HPC)
[7] = dose: 200.0 mg/kg/injection, schedule: Q04DX003 (ip), vehicle: Klucel (hydroxypropylcellulose) (HPC)
[8] = dose: 100.0 mg/kg/injection, schedule: Q01DX001 (ip), vehicle: saline
[9] = dose: 400.0 mg/kg/injection, schedule: Q01DX001 (ip), vehicle: saline
[10] = dose: 100.0 mg/kg/injection, schedule: Q01DX009 (ip), vehicle: saline
[11] = dose: 100.0 mg/kg/injection, schedule: Q04DX003 (ip), vehicle: saline
[12] = dose: 200.0 mg/kg/injection, schedule: Q01DX009 (ip), vehicle: saline
[13] = dose: 200.0 mg/kg/injection, schedule: Q04DX003 (ip), vehicle: saline
[14] = dose: 400.0 mg/kg/injection, schedule: Q04DX003 (ip), vehicle: saline
[15] = dose: 100.0 mg/kg/injection, schedule: Q04DX002 (ip), vehicle: Klucel (hydroxypropylcellulose) (HPC)
[16] = dose: 200.0 mg/kg/injection, schedule: Q04DX002 (ip), vehicle: Klucel (hydroxypropylcellulose) (HPC)
[17] = dose: 75.0 mg/kg/injection, schedule: Q01DX001 (ip), vehicle: saline
[18] = dose: 150.0 mg/kg/injection, schedule: Q01DX001 (ip), vehicle: saline
[19] = dose: 300.0 mg/kg/injection, schedule: Q01DX001 (ip), vehicle: saline
[20] = dose: 100.0 mg/kg/injection, schedule: Q01DX009 (ip), vehicle: Klucel (hydroxypropylcellulose) (HPC)
[21] = dose: 200.0 mg/kg/injection, schedule: Q01DX009 (ip), vehicle: Klucel (hydroxypropylcellulose) (HPC)
[22] = dose: 400.0 mg/kg/injection, schedule: Q01DX009 (ip), vehicle: Klucel (hydroxypropylcellulose) (HPC)
[23] = dose: 400.0 mg/kg/injection, schedule: Q04DX003 (ip), vehicle: Klucel (hydroxypropylcellulose) (HPC)
[24] = dose: 200.0 mg/kg/injection, schedule: Q01DX009 (ip), vehicle: saline with Tween-80

Measured: T/C

CCOC(=O)/C=C(\N)c1ccccc1
inactive: [1] 102 % of control | [2] 108 % of control | [3] 91 % of control

O=C(O)CN1C(=O)c2ccccc2C1=O
inactive: dose: 25.0 mg/kg/injection, schedule: Q01DX009 (ip), vehicle: saline with Tween-80 91 % of control | [4] 98 % of control | [5] 98 % of control | [1] 100 % of control | [2] 103 % of control | [3] 95 % of control

Nc1ccc(CCCCc2c(N)nc(N)nc2N)cc1
inactive: [6] 97 % of control | [7] 93 % of control

CCn1c2ccccc2c2cc(N=C3C(=O)N(C)c4ccccc43)ccc21
inactive: dose: 100.0 mg/kg/injection, schedule: Q01DX001 (ip), vehicle: carboxymethylcellulose (CMC) 95 % of control | dose: 200.0 mg/kg/injection, schedule: Q01DX001 (ip), vehicle: carboxymethylcellulose (CMC) 95 % of control | dose: 400.0 mg/kg/injection, schedule: Q01DX001 (ip), vehicle: carboxymethylcellulose (CMC) 95 % of control

O=C1c2ccccc2C(O)N1c1ccccc1 (centres undefined)
inactive: [8] 86 % of control | [9] 104 % of control

CCNC(=O)CCP(=O)(CCC(=O)NCC)CCC(=O)NCC
inactive: dose: 50.0 mg/kg/injection, schedule: Q01DX009 (ip), vehicle: saline 94 % of control | dose: 50.0 mg/kg/injection, schedule: Q04DX003 (ip), vehicle: saline 101 % of control | [10] 90 % of control | [11] 101 % of control | [12] 90 % of control | [13] 101 % of control | [14] 101 % of control

Oc1ccccc1C1=NCCN1
inactive: dose: 50.0 mg/kg/injection, schedule: Q04DX002 (ip), vehicle: Klucel (hydroxypropylcellulose) (HPC) 102 % of control | [15] 95 % of control | [16] 91 % of control

CCC(COC(=O)c1ccccc1)NC1CCCC1 (centres undefined)
inactive: [17] 102 % of control | [18] 103 % of control | [19] 111 % of control

O=C1C(=O)c2ccccc2C(O)=C1C(C1=C(O)c2ccccc2C(=O)C1=O)c1ccc(Cl)cc1
inactive: [17] 86 % of control | [18] 86 % of control | [19] 86 % of control

CCOC(OC(C)=O)OC(C)=O
inactive: [11] 87 % of control | [13] 101 % of control | [14] 97 % of control

O=C1C(Br)CS(=O)(=O)CC1Br (centres undefined)
inactive: dose: 6.25 mg/kg/injection, schedule: Q01DX009 (ip), vehicle: saline 96 % of control | dose: 8.75 mg/kg/injection, schedule: Q01DX009 (ip), vehicle: saline 106 % of control | dose: 12.5 mg/kg/injection, schedule: Q01DX009 (ip), vehicle: saline 86 % of control | dose: 12.5 mg/kg/injection, schedule: Q04DX003 (ip), vehicle: Klucel (hydroxypropylcellulose) (HPC) 96 % of control | dose: 15.0 mg/kg/injection, schedule: Q01DX001 (ip), vehicle: carboxymethylcellulose (CMC) 102 % of control | dose: 17.5 mg/kg/injection, schedule: Q01DX009 (ip), vehicle: saline 98 % of control | dose: 25.0 mg/kg/injection, schedule: Q01DX009 (ip), vehicle: saline 91 % of control | dose: 25.0 mg/kg/injection, schedule: Q04DX003 (ip), vehicle: Klucel (hydroxypropylcellulose) (HPC) 94 % of control | dose: 30.0 mg/kg/injection, schedule: Q01DX001 (ip), vehicle: carboxymethylcellulose (CMC) 106 % of control

N#CCN(CC#N)CCN(CC#N)CC#N
inactive: [20] 95 % of control | [6] 103 % of control | [21] 92 % of control | [7] 90 % of control | [22] 93 % of control | [23] 105 % of control

Cc1cccc(C(C)(C)CO)c1
inactive: [4] 100 % of control | [5] 96 % of control | [24] 96 % of control

c1ccc(C2=C(c3ccccc3)N=c3ccccc3=c3ccccc3=N2)cc1
inactive: [20] 98 % of control | [6] 94 % of control | [21] 94 % of control | [7] 94 % of control | [22] 94 % of control | [23] 102 % of control

c1ccc2c(c1)ccc1cc3ccncc3cc12
inactive: [8] 95 % of control and 98 % of control | dose: 200.0 mg/kg/injection, schedule: Q01DX001 (ip), vehicle: saline 100 % of control and 106 % of control | [9] 96 % of control

O=C(Nc1ccc(Cl)cc1Cl)Nc1cc(C(F)(F)F)ccc1Cl
inactive: [10] 98 % of control | [12] 95 % of control | dose: 400.0 mg/kg/injection, schedule: Q01DX009 (ip), vehicle: saline 92 % of control

CCCN(CCC)C(=O)OCC
inactive: [5] 97 % of control | [24] 100 % of control

O=C1NC2Cc3ccccc3CC12 (centres undefined)
inactive: [15] 102 % of control | [16] 100 % of control | dose: 400.0 mg/kg/injection, schedule: Q04DX002 (ip), vehicle: Klucel (hydroxypropylcellulose) (HPC) 86 % of control

c1ccc(CN=C(c2ccccc2)c2ccccc2)cc1
inactive: [20] 101 % of control | [6] 104 % of control | [21] 95 % of control | [7] 96 % of control | [22] 106 % of control | [23] 98 % of control

c1ccc(-c2ncnc3c2Cc2ccccc2-3)cc1
inactive: dose: 100.0 mg/kg/injection, schedule: Q04DX003 (ip), vehicle: saline sonified 92 % of control | dose: 200.0 mg/kg/injection, schedule: Q04DX003 (ip), vehicle: saline sonified 94 % of control | dose: 400.0 mg/kg/injection, schedule: Q04DX003 (ip), vehicle: saline sonified 97 % of control

C(=C/c1ccccc1)/C=C/C(=C/c1ccccc1)c1ccccc1
inactive: dose: 100.0 mg/kg/injection, schedule: Q04DX003 (ip), vehicle: saline with Tween-80 91 % of control | dose: 200.0 mg/kg/injection, schedule: Q04DX003 (ip), vehicle: saline with Tween-80 87 % of control and 96 % of control | dose: 400.0 mg/kg/injection, schedule: Q04DX003 (ip), vehicle: saline with Tween-80 87 % of control and 91 % of control

COC(=O)/C=C(\C)Nc1ccc(C(=O)C2CCCCC2)cc1
inactive: dose: 100.0 mg/kg/injection, schedule: Q01DX001 (ip), vehicle: other 90 % of control | dose: 200.0 mg/kg/injection, schedule: Q01DX001 (ip), vehicle: other 95 % of control | dose: 400.0 mg/kg/injection, schedule: Q01DX001 (ip), vehicle: other 96 % of control

Cn1c(Cc2ccccc2)c(-c2ccccc2)c(-c2ccccc2)c1Cc1ccccc1
inactive: [17] 94 % of control | [18] 88 % of control | [19] 93 % of control

CC(=O)OC1CCCC(OCC(C)C)O1 (centres undefined)
inactive: dose: 40.0 mg/kg/injection, schedule: Q01DX Z (ip), vehicle: saline 94 % of control | dose: 60.0 mg/kg/injection, schedule: Q01DX Z (ip), vehicle: saline 92 % of control

COc1nccc(SC)n1
inactive: dose: 95.0 mg/kg/injection, schedule: Q04DX003 (ip), vehicle: Klucel (hydroxypropylcellulose) (HPC) 110 % of control | [6] 107 % of control and 91 % of control | dose: 135.0 mg/kg/injection, schedule: Q04DX003 (ip), vehicle: Klucel (hydroxypropylcellulose) (HPC) 105 % of control | [7] 96 % of control and 97 % of control
